Assay [1] concerns fibroblasts (fbs). Briefly: Fluorescence labeling optimization of DOTAP concentration for liposome-cell fusion. It counts as cell-based. To be noted: keto-LUVs with 0.5-5% DOTAP, 5% ketone; fbs 4 h; rhod-oxyamine 0.7 mM 2 h. How it is done:
Cell-surface labeling. In an embodiment of the present application, oxime chemistry is used to tailor and fluorescently label cell surfaces via a novel liposome fusion strategy. As mentioned, cationic lipid, DOTAP, was incorporated within keto- and oxyamine-LUVs to initiate electrostatic destabilization and subsequent fusion to the cell membrane. As such, the minimum DOTAP concentration required to facilitate liposome-cell fusion was determined to be […] through fluorescence labeling optimization. Keto-LUVs were generated using DOTAP and POPC concentrations that ranged from 0.5% to 5% and 90% to 94.5%, respectively, while maintaining a 5-% ketone concentration. These liposomes were incubated with fibroblasts (fbs) for 4 h, conjugated with an oxyamine-tethered rhodamine (rhod-oxyamine, 8) (0.7 mM, 2 h), and the cell fluorescence intensities were then compared. […] The liposomes for liposome-cell fusion events were approximately ˜60 nm in diameter, similar to those used for the liposome-liposome fusion characterization.

The test system of assay [2] is fibroblasts (fbs). The assay can be described thus: Cell-surface engineering: fluorescent labeling of fbs by liposome fusion and oxime conjugation. It counts as cell-based, mouse. To be noted: liposome fusion 2 h plus complementary oxime dye. How it is done:
Two cell-surface engineering methods were employed to fluorescently label fbs. In this first method, a solution of oxyamine vc-LUVs (6, 3 mM) was incubated with a ketone-functionalized fluorescein (7, 0.15 mM, 1 eq, 2 h), forming fluorescently labeled liposomes. The liposomes were then added to fbs in culture for 2 h. After fusion, the cells were washed with PBS (3×2 mL), trypsinized (1 mL, 5 min, 37° C., 5% CO2), diluted with CBS-containing media (˜10^2/mL), and seeded to a glass substrate (1×1 cm^2, 2 h). The cells were then imaged under a fluorescence microscope with an exposure time of 1/1200 s. In the second method, a solution of keto-LUVs (5, 200 μL, 0.6 mM) was added to fbs in culture for 2 h, resulting in membrane fusion and subsequent display of ketones from the cell surface (9). Rhod-oxyamine (8, 100 μL, 0.7 mM in H2O) was then added the cells for 2 h. After oxime formation, the fbs were washed with PBS (3×2 mL), trypsinized (1 mL, 5 min, 37° C., 5% CO2), diluted with CBS-containing media (˜10^2/mL), and seeded to a glass substrate (1×1 cm^2, 2 h). The cells were then imaged under a fluorescence microscope with an exposure time of 1/1200 s (see FIG. 3).

SMILES strings stand for the structures. Entries after “also recorded” stand apart in the source; their conditions may differ.

On to `CCCCCCCC/C=C\CCCCCCCC(=O)OCC(C[N+](C)(C)C)OC(=O)CCCCCCC/C=C\CCCCCCCC` (centres unmarked) [DOTAP, 1,2-dioleoyl-3-trimethylammonium-propane], for which the “minimum DOTAP concentration required to facilitate liposome-cell fusion” value in the assay with fibroblasts (fbs) [1] is listed as 2%.

With `CCN(CC)c1ccc2c(-c3ccc(S(=O)(=O)NCCCCNC(=O)CON)cc3S(=O)(=O)[O-])c3ccc(=[N+](CC)CC)cc-3oc2c1` [compound 8, 5-(N-(4-(2-(aminooxy)acetamido)butyl)sulfamoyl)-2-(6-(diethylamino)-3-(diethyliminio)-3H-xanthen-9-yl)benzenesulfonate], in the assay on fibroblasts (fbs) [2], the “fluorescent labeling of fbs (microscopy)” value is given as “fluorescence labeling of cells; also recorded: red fluorescent labeling of the cells”.

The values above are taken from patent US9080144B2, “Compositions and methods for promoting liposomal and cellular adhesion” (priority 2012, dated 2015).
